Results: publication PMC7068720, “Rational Design of Mechanism-Based Inhibitors and Activity-Based Probes for the Identification of Retaining α-L-Arabinofuranosidases” (Journal of the American Chemical Society, 2020)
Read-outs that look alike come from different tables or passages of the source. Values belong to the molecule of their own block, whether it stands above or below them.

How the values were obtained:
[1] = molecular target: T1, AnAbfA (GH51) (Aspergillus niger, UniProt A2Q7E0); test: continuous fluorescence assay, irreversible inhibition kinetics; assay type: biochemical
T1 construct: gene abfA; synthetic gene in pPICZalpha (vector fragment amplified from untagged AkAbfB plasmid), secreted from Pichia pastoris X-33
T1 sequence (A2Q7E0 26-628): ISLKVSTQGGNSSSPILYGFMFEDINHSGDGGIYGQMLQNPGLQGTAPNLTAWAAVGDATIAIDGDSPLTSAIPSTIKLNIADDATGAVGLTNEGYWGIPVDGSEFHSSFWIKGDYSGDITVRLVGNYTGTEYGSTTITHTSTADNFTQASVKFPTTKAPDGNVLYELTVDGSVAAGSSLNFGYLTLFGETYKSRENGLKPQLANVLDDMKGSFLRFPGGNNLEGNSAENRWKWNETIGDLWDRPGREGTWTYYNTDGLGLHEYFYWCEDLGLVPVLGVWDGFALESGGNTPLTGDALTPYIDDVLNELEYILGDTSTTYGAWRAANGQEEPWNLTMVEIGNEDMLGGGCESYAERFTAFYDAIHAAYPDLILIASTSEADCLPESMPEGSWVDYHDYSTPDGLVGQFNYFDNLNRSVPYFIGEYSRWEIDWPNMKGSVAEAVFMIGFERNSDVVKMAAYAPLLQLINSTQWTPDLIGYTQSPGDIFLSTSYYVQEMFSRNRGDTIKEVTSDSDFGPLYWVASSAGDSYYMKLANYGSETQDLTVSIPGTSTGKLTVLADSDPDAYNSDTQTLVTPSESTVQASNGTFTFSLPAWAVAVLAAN
Description: continuous fluorescence assay, irreversible inhibition kinetics on AnAbfA (GH51)

[2] = molecular target: T2, AkAbfB (GH54) (Aspergillus luchuensis, UniProt Q8NK89); test: as above; assay type: biochemical
T2 construct: gene abfB; pPICZalpha, no purification tag, secreted from Pichia pastoris X-33; EndoH-deglycosylated for MS and crystallography
T2 sequence (Q8NK89 18-499): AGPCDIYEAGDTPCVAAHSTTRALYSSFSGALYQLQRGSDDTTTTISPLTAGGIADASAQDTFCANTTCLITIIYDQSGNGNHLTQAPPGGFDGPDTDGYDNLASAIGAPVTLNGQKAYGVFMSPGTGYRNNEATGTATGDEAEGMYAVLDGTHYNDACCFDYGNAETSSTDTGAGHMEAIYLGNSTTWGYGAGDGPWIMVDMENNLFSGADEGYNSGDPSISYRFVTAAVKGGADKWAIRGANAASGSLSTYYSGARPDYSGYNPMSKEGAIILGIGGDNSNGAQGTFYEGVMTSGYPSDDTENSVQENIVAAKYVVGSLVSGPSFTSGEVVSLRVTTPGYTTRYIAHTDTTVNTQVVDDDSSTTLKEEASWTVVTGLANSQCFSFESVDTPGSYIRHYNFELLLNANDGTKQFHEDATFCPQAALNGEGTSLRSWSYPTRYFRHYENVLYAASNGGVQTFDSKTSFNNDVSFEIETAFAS
Description: continuous fluorescence assay, irreversible inhibition kinetics on AkAbfB (GH54)

[3] = molecular target: T3, AbfE (GH51) (Aspergillus niger, UniProt A2QT56); test: competition with ABP […] pull-down, LC-MS/MS; assay type: biochemical; conditions: covalent; 0.1 mM inhibitor 1 h, pH 6.5, 37 °C, then ABP 5
T3 construct: gene An09g00880; native secreted protein in arabinan-grown secretome
T3 sequence (A2QT56 32-646): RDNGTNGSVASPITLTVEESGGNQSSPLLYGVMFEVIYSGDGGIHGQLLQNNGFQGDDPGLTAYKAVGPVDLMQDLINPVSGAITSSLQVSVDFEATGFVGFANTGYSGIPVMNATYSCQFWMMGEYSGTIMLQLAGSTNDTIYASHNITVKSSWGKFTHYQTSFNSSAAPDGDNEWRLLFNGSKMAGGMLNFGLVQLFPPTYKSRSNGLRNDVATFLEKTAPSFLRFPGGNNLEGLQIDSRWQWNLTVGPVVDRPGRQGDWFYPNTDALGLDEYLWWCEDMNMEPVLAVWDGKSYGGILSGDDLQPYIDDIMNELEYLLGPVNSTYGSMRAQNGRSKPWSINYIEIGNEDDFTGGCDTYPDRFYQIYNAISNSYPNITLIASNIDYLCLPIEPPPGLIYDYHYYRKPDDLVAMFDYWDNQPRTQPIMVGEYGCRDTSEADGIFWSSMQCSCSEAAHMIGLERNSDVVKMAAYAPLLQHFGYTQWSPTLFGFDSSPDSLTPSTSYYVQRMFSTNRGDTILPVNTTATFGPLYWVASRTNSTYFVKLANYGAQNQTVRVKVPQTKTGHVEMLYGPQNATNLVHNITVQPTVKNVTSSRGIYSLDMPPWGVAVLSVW

[4] = molecular target: T4, GsGH51 (Geobacillus stearothermophilus abfA) (Geobacillus stearothermophilus, UniProt Q9XBQ3); test: X-ray crystallography ([…] Å) and intact MS; assay type: binding; conditions: covalent; nucleophile E294
T4 construct: E. coli BL21(DE3) Gold, pET28a(+), N-terminal TEV-cleavable 6xHis tag removed

[5] = molecular target: T5, AnAbfB (AbfB, GH54) (Aspergillus niger, UniProt A2R511); test: competition with ABP […] pull-down, LC-MS/MS; assay type: biochemical; conditions: covalent; 0.1 mM inhibitor 1 h, pH 6.5, 37 °C, then ABP 5
T5 construct: native secreted glycoprotein in arabinan-grown secretome, ~65 kDa on gel (~60 kDa after PNGaseF)
T5 sequence (A2R511 19-499): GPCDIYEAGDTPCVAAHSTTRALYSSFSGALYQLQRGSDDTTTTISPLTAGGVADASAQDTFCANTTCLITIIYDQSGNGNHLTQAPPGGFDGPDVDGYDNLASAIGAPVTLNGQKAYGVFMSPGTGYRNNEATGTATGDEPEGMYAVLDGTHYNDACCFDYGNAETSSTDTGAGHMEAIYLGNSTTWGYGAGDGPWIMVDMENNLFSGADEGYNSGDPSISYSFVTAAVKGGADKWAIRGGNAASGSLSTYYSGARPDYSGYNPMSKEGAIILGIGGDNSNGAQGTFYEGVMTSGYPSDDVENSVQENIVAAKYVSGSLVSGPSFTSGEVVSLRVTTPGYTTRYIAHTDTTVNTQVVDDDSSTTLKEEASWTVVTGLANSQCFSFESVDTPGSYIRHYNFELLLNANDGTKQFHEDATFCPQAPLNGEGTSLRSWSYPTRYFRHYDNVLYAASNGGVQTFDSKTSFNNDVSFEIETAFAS

[6] = substrate: Cc1cc(=O)oc2cc(O[C@@H]3O[C@@H](CO)[C@H](O)[C@H]3O)ccc12; test: continuous fluorescence assay, Michaelis-Menten; assay type: biochemical, Aspergillus niger; conditions: 4-500 μM substrate, 50 mM sodium phosphate pH 7.0, 25 °C
[7] = substrate: Cc1cc(=O)oc2cc(O[C@@H]3O[C@@H](CO)[C@H](O)[C@H]3O)ccc12; test: continuous fluorescence assay, Michaelis-Menten; assay type: biochemical, Aspergillus luchuensis; conditions: 4-500 μM substrate, 50 mM sodium phosphate pH 7.0, 25 °C
[8] = 4MU-Araf 100 μM, 50 mM sodium phosphate pH 7.0, 25 °C; up to 0.25 mM inhibitor
[9] = covalent; mechanism-based; 4MU-Araf 100 μM, 50 mM sodium phosphate pH 7.0, 25 °C; read-out: KI
[10] = read-out: KI; covalent; mechanism-based; 4MU-Araf 100 μM, 50 mM sodium phosphate pH 7.0, 25 °C
[11] = covalent; mechanism-based; 4MU-Araf 100 μM, 50 mM sodium phosphate pH 7.0, 25 °C

T4 sequence (Q9XBQ3 whole entry): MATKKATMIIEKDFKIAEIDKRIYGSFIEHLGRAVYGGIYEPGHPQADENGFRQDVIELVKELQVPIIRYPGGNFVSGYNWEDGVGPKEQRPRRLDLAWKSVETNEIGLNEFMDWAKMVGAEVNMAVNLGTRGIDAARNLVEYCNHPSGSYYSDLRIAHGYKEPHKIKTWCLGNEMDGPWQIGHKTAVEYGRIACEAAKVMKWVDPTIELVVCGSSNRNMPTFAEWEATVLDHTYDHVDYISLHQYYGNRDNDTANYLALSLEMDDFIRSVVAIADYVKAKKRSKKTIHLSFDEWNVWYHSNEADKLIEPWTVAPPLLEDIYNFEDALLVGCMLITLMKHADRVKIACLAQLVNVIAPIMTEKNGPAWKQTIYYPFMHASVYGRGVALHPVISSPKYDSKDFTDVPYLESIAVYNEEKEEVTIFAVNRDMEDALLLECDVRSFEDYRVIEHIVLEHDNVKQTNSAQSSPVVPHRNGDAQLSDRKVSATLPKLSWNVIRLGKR

kinact/KI [1, 8]: < 0.1 M⁻¹ s⁻¹
kinact/KI [2, 8]: < 0.1 M⁻¹ s⁻¹
Molecule: OC[C@H]1[C@H](O)[C@@H](O)[C@@H]2O[C@H]12 [compound 1]

Molecule: OC[C@H]1[C@H](O)[C@@H](O)[C@@H]2N[C@H]12 [compound 2, inhibitor 2]
competition with ABP 5 pull-down, LC-MS/MS [3]: significantly reduced signal for peptides from AbfA, AbfB, and AbfE
KI (inactivation) [1, 9]: 140 ± 20 µM
KI (inactivation) [2, 9]: 320 ± 50 µM
X-ray crystallography (1.40 Å) and intact MS [4]: full occupancy covalent complex between E294, the known catalytic nucleophile, and each inhibitor
competition with ABP 5 pull-down, LC-MS/MS [5]: significantly reduced signal for peptides from AbfA, AbfB, and AbfE

Molecule: NCCCCCCCCN1[C@@H]2[C@@H](CO)[C@H](O)[C@@H](O)[C@@H]21 (stereo partly shown) [compound 3, inhibitor 3]
KI (inactivation) [1, 10]: 210 ± 30 µM
KI (inactivation) [2, 10]: 320 ± 40 µM

kinact/KI [1, 11]: 160 ± 20 M⁻¹ s⁻¹
kinact/KI [2, 11]: 240 ± 30 M⁻¹ s⁻¹
Molecule: O=S1(=O)O[C@@H]2[C@@H](CO)[C@H](O)[C@@H](O)[C@@H]2O1 [compound 6, inhibitor 6]
X-ray crystallography (1.40 Å) and intact MS [4]: full occupancy covalent complex between E294, the known catalytic nucleophile, and each inhibitor

B1: AnAbfA (GH51) (Aspergillus niger CBS 513.88) (protein)
chain: ISLKVSTQGGNSSSPILYGFMFEDINHSGDGGIYGQMLQNPGLQGTAPNLTAWAAVGDATIAIDGDSPLTSAIPSTIKLNIADDATGAVGLTNEGYWGIPVDGSEFHSSFWIKGDYSGDITVRLVGNYTGTEYGSTTITHTSTADNFTQASVKFPTTKAPDGNVLYELTVDGSVAAGSSLNFGYLTLFGETYKSRENGLKPQLANVLDDMKGSFLRFPGGNNLEGNSAENRWKWNETIGDLWDRPGREGTWTYYNTDGLGLHEYFYWCEDLGLVPVLGVWDGFALESGGNTPLTGDALTPYIDDVLNELEYILGDTSTTYGAWRAANGQEEPWNLTMVEIGNEDMLGGGCESYAERFTAFYDAIHAAYPDLILIASTSEADCLPESMPEGSWVDYHDYSTPDGLVGQFNYFDNLNRSVPYFIGEYSRWEIDWPNMKGSVAEAVFMIGFERNSDVVKMAAYAPLLQLINSTQWTPDLIGYTQSPGDIFLSTSYYVQEMFSRNRGDTIKEVTSDSDFGPLYWVASSAGDSYYMKLANYGSETQDLTVSIPGTSTGKLTVLADSDPDAYNSDTQTLVTPSESTVQASNGTFTFSLPAWAVAVLAAN
notes: synthetic gene in pPICZalpha (vector fragment amplified from untagged AkAbfB plasmid), secreted from Pichia pastoris X-33
Km [6]: 240 ± 20 µM
kcat [6]: 2.17 ± 0.167 s⁻¹

B2: AkAbfB (GH54) (Aspergillus luchuensis IFO 4308) (protein)
chain: AGPCDIYEAGDTPCVAAHSTTRALYSSFSGALYQLQRGSDDTTTTISPLTAGGIADASAQDTFCANTTCLITIIYDQSGNGNHLTQAPPGGFDGPDTDGYDNLASAIGAPVTLNGQKAYGVFMSPGTGYRNNEATGTATGDEAEGMYAVLDGTHYNDACCFDYGNAETSSTDTGAGHMEAIYLGNSTTWGYGAGDGPWIMVDMENNLFSGADEGYNSGDPSISYRFVTAAVKGGADKWAIRGANAASGSLSTYYSGARPDYSGYNPMSKEGAIILGIGGDNSNGAQGTFYEGVMTSGYPSDDTENSVQENIVAAKYVVGSLVSGPSFTSGEVVSLRVTTPGYTTRYIAHTDTTVNTQVVDDDSSTTLKEEASWTVVTGLANSQCFSFESVDTPGSYIRHYNFELLLNANDGTKQFHEDATFCPQAALNGEGTSLRSWSYPTRYFRHYENVLYAASNGGVQTFDSKTSFNNDVSFEIETAFAS
notes: pPICZalpha, no purification tag, secreted from Pichia pastoris X-33; EndoH-deglycosylated for MS and crystallography
Km [7]: 390 ± 30 µM
kcat [7]: 3.5 ± 0.167 s⁻¹
